From ChEMBL document CHEMBL1135245, “Highly potent inhibitors of TNF-alpha production. Part 1: Discovery of chemical leads” (2002)

How the values were obtained:
Rattus norvegicus [1] = assay: Tested for inhibition of Tumor necrosis factor alpha production after intravenous dosage of 10 mg/kg to 6-8 weeks old rats; assay type: functional
Rattus norvegicus [2] = assay: Inhibition of Tumor necrosis factor alpha production after i.v. dose of 0.01-0.1 mg/10 mL/kg in 6-8 weeks old rats.; assay type: functional; conditions: for ED50: Rattus norvegicus, iv, read-out: ID50 (the source's name)
Mus musculus [3] = assay: Tested for inhibition of Tumor necrosis factor alpha production after intravenous dosage of 10 mg/kg to 8 weeks old mice; assay type: functional
Rattus norvegicus [4] = assay: Tested for inhibition of Tumor necrosis factor alpha production after intravenous dosage of 30 mg/kg to 6-8 weeks old rats pretreated with saline; assay type: functional
Mus musculus [5] = assay: Tested for inhibition of Tumor necrosis factor alpha production in 8 weeks old mice after intravenous dosage of 0.01-0.1 mg/10 mL/kg; assay type: functional; conditions: for ED50: Mus musculus, iv, read-out: ID50 (the source's name)
Rattus norvegicus [6] = assay: Tested for inhibition of Tumor necrosis factor alpha production (po) in rats; assay type: functional; conditions: read-out: ID50 (the source's name)
Mus musculus [7] = assay: Tested for inhibition of Tumor necrosis factor alpha production after intravenous dosage of 30 mg/kg to 8 weeks old mice; assay type: functional
Rattus norvegicus [8] = assay: Tested for inhibition of Tumor necrosis factor alpha production after intravenous dosage of 10 mg/kg to 6-8 weeks old rats

## CCCCCCCC(=O)NC(COP(=O)(O)O)c1ccc(OC)cc1 (stereo not given)
Rattus norvegicus [1]
  inhibition in vivo at 10 mg/kg: 34%

## CCCCCCCC(=O)NC(COP(=O)(O)O)c1cccc(OC2CCCC2)c1 (stereo not given)
Rattus norvegicus [1]
  inhibition in vivo at 10 mg/kg: 7%

## CCCCCCCC(=O)N[C@H](COP(=O)([O-])[O-])c1ccccc1.[Na+].[Na+]
Rattus norvegicus [2]
  ED50: 10 mg/kg

## CC(=O)N[C@@H](COP(=O)(O)O)c1ccccc1
Mus musculus [3]
  inhibition in vivo at 10 mg/kg: 28%
Rattus norvegicus [4]
  inhibition in vivo at 30 mg/kg: 21%

## CCCCCCCC(=O)NC(COP(=O)([O-])[O-])c1cccc(OC2CCC2)c1.[Na+].[Na+] (stereo not given)
Rattus norvegicus [2]
  ED50: 0.9 mg/kg

## CCCCCCCC(=O)NC(COP(=O)([O-])[O-])c1cccc(OCC(C)C)c1.[Na+].[Na+] (stereo not given)
Rattus norvegicus [2]
  ED50: 33 mg/kg

## CCCCCCC(C)C(=O)N[C@@H](COP(=O)([O-])[O-])c1ccccc1.[Na+].[Na+] (stereo in doubt)
Rattus norvegicus [2]
  ID50: 8 mg/kg
Mus musculus [5]
  ED50: 4.2 mg/kg

## CCCCCCCC(=O)NC(COP(=O)([O-])[O-])c1ccccc1C.[Na+].[Na+] (stereo not given)
Rattus norvegicus [2]
  ED50: 2 mg/kg

## CCCCCCCC(=O)NC(COP(=O)([O-])[O-])c1cc(OC)cc(OC)c1.[Na+].[Na+] (stereo not given)
Rattus norvegicus [2]
  ED50: 3.8 mg/kg

## O=C(N[C@@H](COP(=O)([O-])[O-])c1ccccc1)c1ccccc1.[Na+].[Na+]
Mus musculus [3]; read-out: ID50 (the source's name)
  ED50: 32 mg/kg

## CCCC(=O)N[C@@H](COP(=O)(O)O)c1ccccc1
Mus musculus [3]
  inhibition in vivo at 10 mg/kg: 17%
Rattus norvegicus [4]
  inhibition in vivo at 30 mg/kg: 37%

## CCCCCC(=O)N[C@@H](COP(=O)([O-])[O-])c1ccccc1.[Na+].[Na+]
Rattus norvegicus [2]
  ED50: 50 mg/kg
Mus musculus [5]
  ED50: 30 mg/kg

## CCCCCCCC(=O)NC(COP(=O)([O-])[O-])c1cccc(SC(C)C)c1.[Na+].[Na+] (stereo not given)
Rattus norvegicus [2]
  ED50: 0.21 mg/kg

## CCCCCCCC(=O)N[C@@H](COP(=O)([O-])[O-])c1ccccc1.[Na+].[Na+]
Rattus norvegicus [2]
  ED50: 3 mg/kg
Mus musculus [5]
  ED50: 0.8 mg/kg
Rattus norvegicus [6]
  ED50: 103 mg/kg

## CCCCCCCC(=O)NC(COP(=O)(O)O)c1ccc(Cl)cc1 (stereo not given)
Rattus norvegicus [1]
  inhibition in vivo at 10 mg/kg: -118%

## CCCCCCCC(=O)NC(COP(=O)([O-])[O-])c1cccc(Cl)c1.[Na+].[Na+] (stereo not given)
Rattus norvegicus [2]
  ED50: 5.2 mg/kg

## CCCCCCCCCCC(=O)N[C@@H](COP(=O)(O)O)c1ccccc1
Mus musculus [3]
  inhibition in vivo at 10 mg/kg: 50%

## CCCCCCC(C)(C)C(=O)N[C@@H](COP(=O)(O)O)c1ccccc1
Mus musculus [3]
  inhibition in vivo at 10 mg/kg: 56%

## CCCCCCCC(=O)NC(COP(=O)(O)O)c1ccc(C)cc1 (stereo not given)
Rattus norvegicus [1]
  inhibition in vivo at 10 mg/kg: 44%

## CCCCCCCC(=O)NC(COP(=O)(O)O)c1ccccc1Cl (stereo not given)
Rattus norvegicus [1]
  inhibition in vivo at 10 mg/kg: 46%

## CCCCCCC(C)C(=O)N[C@@H](COP(=O)([O-])[O-])c1ccccc1.[Na+].[Na+] (single isomer, unassigned; more polar)
Rattus norvegicus [2]
  ID50: 1.7 mg/kg
Mus musculus [5]
  ID50: 2.4 mg/kg

## CCCCCCOC(=O)N[C@@H](COP(=O)([O-])[O-])c1ccccc1.[Na+].[Na+]
Rattus norvegicus [2]
  ED50: 3.2 mg/kg
Mus musculus [5]
  ED50: 1.1 mg/kg

## CCCCCCCC(=O)NC(COP(=O)([O-])[O-])c1cccc(SC)c1.[Na+].[Na+] (stereo not given)
Rattus norvegicus [2]
  ED50: 0.56 mg/kg

## CCCCCCCC(=O)NC(COP(=O)([O-])[O-])c1cccc(OCCC)c1.[Na+].[Na+] (stereo not given)
Rattus norvegicus [2]
  ED50: 0.7 mg/kg

## CCCCCCNC(=O)N[C@@H](COP(=O)(O)O)c1ccccc1
Mus musculus [3]
  inhibition in vivo at 10 mg/kg: 58%

## CCCCCCC(=O)N[C@@H](COP(=O)([O-])[O-])c1ccccc1.[Na+].[Na+]
Rattus norvegicus [2]
  ED50: 4.5 mg/kg
Mus musculus [5]
  ED50: 2.8 mg/kg

## CCCCCCCC(=O)NC(COP(=O)([O-])[O-])c1cccc(OC)c1.[Na+].[Na+] (stereo not given)
Rattus norvegicus [2]
  ED50: 0.5 mg/kg

## CCCCCCCC(=O)N[C@@H](COP(=O)([O-])[O-])c1cccc(OC)c1.[Na+].[Na+]
Mus musculus [5]
  ED50: 0.26 mg/kg

## CCCCCCCC(=O)NC(COP(=O)([O-])[O-])c1cccc(OC(C)C)c1.[Na+].[Na+] (stereo not given)
Rattus norvegicus [2]
  ED50: 0.1 mg/kg

## CCCC(CCC)C(=O)N[C@@H](COP(=O)(O)O)c1ccccc1
Mus musculus [7]
  inhibition in vivo at 30 mg/kg: 36%

## CCCCCCCC(=O)N[C@H](COP(=O)([O-])[O-])c1cccc(OC)c1.[Na+].[Na+]
Rattus norvegicus [2]
  ED50: 1.6 mg/kg

## CCCCCCCC(=O)NC(COP(=O)([O-])[O-])c1cccc(OCC)c1.[Na+].[Na+] (stereo not given)
Rattus norvegicus [2]
  ED50: 0.2 mg/kg

## CCCCCCCC(=O)NC(COP(=O)(O)O)c1ccccc1OC (stereo not given)
Rattus norvegicus [8]
  inhibition in vivo at 10 mg/kg: 55%

## CCCCCCCC(=O)NC(COP(=O)([O-])[O-])c1cccc(C)c1.[Na+].[Na+] (stereo not given)
Rattus norvegicus [2]
  ED50: 53 mg/kg

## CCCCCCCC(=O)NC(COP(=O)([O-])[O-])c1cccc(O)c1.[Na+].[Na+] (stereo not given)
Rattus norvegicus [2]
  ED50: 1.4 mg/kg

## O=C(CCCCc1ccccc1)N[C@@H](COP(=O)(O)O)c1ccccc1
Mus musculus [3]
  inhibition in vivo at 10 mg/kg: 27%
